This passage reports TGI results from PubChem BioAssay (NCI).

Common to all, as to experiment: NCI anticancer screen, dose series, 48 h
Assay [1] has as its system NCI/ADR-RES ovarian.
Assay [2] has as its system MOLT-4 leukemia.
Assay [3] has as its system NCI-H460 lung.
The subject of assay [4] is UO-31 renal.

Molecules are shown by their SMILES.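 Growth conditions: 96-well plates. Treatment: test compound, 48 hours, 5 concentrations. Analysis: linear interpolation between bracketing concentrations; unreached endpoints set to highest concentration. TGI marks complete inhibition of growth.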

As for `O=c1c2ccccc2nc2n1C(c1ccc([N+](=O)[O-])cc1)C2(c1ccccc1)c1ccccc1` (stereo unspecified), the TGI in assay [1], in assay [2] and in assay [3] was above 100 µM each time.

Turning to `COc1ccc(/C=C/C(=N/NC(=O)N/N=C(/C=C/c2ccc(OC)cc2)C(C)(C)CN2CCCCC2)C(C)(C)CN2CCCCC2)cc1`, the TGI in assay [1] turned out to be 4.33 µM; in assay [4], 2.95 µM; in assay [2], 4.18 µM; in assay [3], 3.82 µM.

For `O=C(Nc1nc(C23CC4CC(CC(C4)C2)C3)cs1)c1cc2cc(Cl)ccc2oc1=O`, the TGI in assay [1], in assay [4], in assay [2] and in assay [3] was above 100 µM each time.

`C[n+]1c2ccccc2n2c3ccccc3c(NCCc3ccccn3)c(C#N)c21`: the TGI was above 60 µM in assay [1], 6.51 µM in assay [4], above 22.5 µM in assay [2] and 3.61 µM in assay [3].

In the case of `CC1CCCCN1CC(=O)c1ccc2c(c1)Sc1ccccc1O2` (stereo unspecified), the TGI in assay [1] was 35.5 µM; in assay [4] it was 25.7 µM; in assay [2], above 100 µM; in assay [3], 29.7 µM.

Turning to `COc1cc(OC)c2c(=O)c(OC)c(-c3ccc4c(c3)OCO4)oc2c1OC`, the TGI in assay [1], in assay [4], in assay [2] and in assay [3] was above 100 µM each time.

In the case of `c1cc2nnc1SCCCSc1ccc(nn1)SCCCSc1ccc(nn1)SCCCS2`, the TGI in assay [1], in assay [4], in assay [2] and in assay [3] was above 100 µM in each case.

Regarding `COC1(OC)N=C(N)C2(C#N)C3(C(=O)N(C(C)C)N=C3C)C12C#N` (stereo unspecified), the TGI in assay [1], in assay [4], in assay [2] and in assay [3] was above 100 µM each time.

With `COc1cc(CNC2=NCCC2)cc(OC)c1OC`, the TGI in assay [1], in assay [4], in assay [2] and in assay [3] was above 100 µM in each case.

On to `CCC/C(Cl)=N\OC(=O)Nc1cccc(C(F)(F)F)c1`, for which the TGI in assay [1] was above 59.4 µM; in assay [4] it was 33.9 µM; in assay [2], 13.6 µM; in assay [3] it was 35.8 µM.

Regarding `CCOC(=O)C1C(c2ccc(O)c(OC)c2)c2c([nH][nH]c2=O)CC1(C)O` (stereo unspecified), the TGI in assay [1], in assay [4] and in assay [2] was above 100 µM in each case.

`Cc1[nH]n(C(=N)N)c(=O)c1CCO`: the TGI was 8.93 µM in assay [1], above 100 µM in assay [4] and above 100 µM in assay [3].

Turning to `COC(=O)/C=C(/C(=O)OC)c1cc2ccc3c([nH]c4ccccc43)c(C)c-2c1`, the TGI in assay [1] was above 100 µM; in assay [4] it was 17.1 µM; in assay [2] it was 11.5 µM; in assay [3] it was 18.6 µM.

Turning to `Cc1ccc(C2SCC(=O)N2c2ccc(-c3ccc(-n4c(-c5ccccc5)nc5ccccc5c4=O)cc3)cc2)cc1` (stereo unspecified), the TGI in assay [1], in assay [4], in assay [2] and in assay [3] was above 100 µM throughout.

Turning to `CO/C(=C/C(=O)C(Cl)(Cl)Cl)CC/C(=C\C(=O)C(Cl)(Cl)Cl)OC`, the TGI in assay [1] was above 100 µM; in assay [4], 43.4 µM; in assay [2], above 100 µM; in assay [3], 99.3 µM.

On to `O=C1C(Cl)C2(CC(/C=C/c3ccccc3O)=NN2c2cccc(S(=O)(=O)O)c2)N1c1nc2ccccc2s1` (stereo unspecified), for which the TGI in assay [1] was above 100 µM; in assay [4], 26.2 µM; in assay [2], 47.7 µM; in assay [3] it was 34.6 µM.

`O=C(O)CC1NC(/C(=C/c2ccccc2O)NC(=O)c2ccccc2)OC1=O` (stereo unspecified): the TGI in assay [1] was above 100 µM; in assay [4], above 63.6 µM; in assay [2], above 100 µM; in assay [3] it was above 100 µM.

Take `CN1C(=O)C(C(N)=O)C2CC1(C)Oc1ccccc12` (stereo unspecified): the TGI in assay [1], in assay [2] and in assay [3] was above 100 µM each time.

On to `Cc1nc2c(cc1C(=O)N/N=C/c1ccc([N+](=O)[O-])cc1)c(=O)n(C)c(=O)n2C`, for which the TGI in assay [1], in assay [4], in assay [2] and in assay [3] was above 100 µM each time.

With `COc1cc(/C=C/c2nc(N)nnc2C)cc(OC)c1OC`, the TGI in assay [1] was above 90.2 µM; in assay [4] it was above 42 µM; in assay [2] it was above 90.7 µM; in assay [3] it was above 58.5 µM.

As for `CSc1cc(Br)ccc1-n1c(C(=O)c2ccccc2)c(SC)n(-c2ccccc2)c1=O`, the TGI in assay [1], in assay [4], in assay [2] and in assay [3] was above 100 µM each time.

`COc1c2c(cc3c1OCO3)C13C=CC(OC)CC1N(CC3)C2` (stereo unspecified): the TGI in assay [1], in assay [4] and in assay [2] was above 100 µM each time.

Take `Cc1ccc(Nc2[nH]c(=O)[nH]c(=O)c2C)cc1Cl`: the TGI in assay [1], in assay [4] and in assay [3] was above 100 µM each time.

Regarding `Cc1ccc(N=C2S/C(=C3/CCC=C3N3CCOCC3)N(c3ccc(Cl)cc3)C2=Nc2ccc(C)cc2)cc1`, the TGI in assay [4], in assay [2] and in assay [3] was above 100 µM each time.

Take `O=C1CCCC(=O)N1n1c(Cc2ccccc2)n[nH]c1=O`: the TGI in assay [1], in assay [4] and in assay [2] was above 100 µM in each case.

Turning to `S=C(N/N=C/c1ccccn1)Nc1ccc(Cl)cc1`, the TGI in assay [4] was 1.09 µM; in assay [2] it was above 100 µM; in assay [3], above 100 µM.

Regarding `Cc1c(-c2ccccc2)c(C#N)c2nnn(C3CCCCC3)c(=O)n12`, the TGI is above 100 µM in assay [1], 6.85 µM in assay [4] and above 100 µM in assay [3].

Regarding `COc1cccc(CCNc2c(C#N)c3nc4ccccc4n3c3ccccc23)c1`, the TGI in assay [4], in assay [2] and in assay [3] was above 100 µM each time.
